Source: US8815872B2, “Macrocyclics pyrimidines as aurora kinase inhibitors” (Merck Patent GmbH, priority 2008, dated 2014)

Legend:
Assay in all cases: Other kinases, single-concentration inhibition (Table 3)
Assay type in all cases: biochemical
[1] = biological target: T1, TrkA(h) (Homo sapiens, UniProt P04629)
T1 construct: purchased Caliper Life Sciences
Procedure: (§1) The Aurora and other kinase assays described here were performed on two Caliper Life Sciences systems, the LC3000 and the Desktop Profiler. These provide data on enzyme activity via measurement of the relative amounts of phosphorylated or unphosphorylated fluorescently labelled substrate peptide at the end of an enzymatic reaction. These different states of peptide are resolved by applying a potential difference across the sample. The presence of a charged phosphate group on the product (as opposed to the substrate) causes a different peptide mobility between the two peptides. This is visualized by excitation of a fluorescent label on the substrate and product peptides and represented as peaks within the analysis software.
(§2) The Desktop Profiler utilizes the same principal as the LC 3000 for calculating percentage conversion of a substrate to product. Caliper Life Sciences provided proprietary flash frozen pre-made 384 well plates containing selected kinases. Each column in the 384 well plate contained a particular selected kinase. A second plate, the ‘substrate plate’ contained a mix of fluorescently labeled peptide substrate and ATP. These were arranged in columns so that transfer for substrate plate to enzyme plate provided the correct enzyme with the correct substrate/ATP concentration.
(§3) Compounds were added to a thawed enzyme plate in the desired format, in single concentrations. Reactions were initiated by transfer of the ubstrate/ATP mix from the substrate plate. The enzyme plate was incubated for 90 mins at 25 °C. The reaction was stopped by addition of […] of Stop Buffer (100 mM HEPES pH 7.5, 0.015% Brij-35, 10 mM EDTA (Sigma, E7889)).
(§4) Plates were read in a manner identical to that of the LC3000, and the ratio between substrate and product peaks provided the activity of the enzyme in that well. This was best represented by a plate heat map which colors each well by percent inhibition as compared to positive and negative controls (no inhibitors and no ATP respectively).

[2] = biological target: T2, EphB2(h) (Homo sapiens, UniProt P29323)
T2 construct: purchased Caliper Life Sciences
T2 sequence (P29323 19-1055): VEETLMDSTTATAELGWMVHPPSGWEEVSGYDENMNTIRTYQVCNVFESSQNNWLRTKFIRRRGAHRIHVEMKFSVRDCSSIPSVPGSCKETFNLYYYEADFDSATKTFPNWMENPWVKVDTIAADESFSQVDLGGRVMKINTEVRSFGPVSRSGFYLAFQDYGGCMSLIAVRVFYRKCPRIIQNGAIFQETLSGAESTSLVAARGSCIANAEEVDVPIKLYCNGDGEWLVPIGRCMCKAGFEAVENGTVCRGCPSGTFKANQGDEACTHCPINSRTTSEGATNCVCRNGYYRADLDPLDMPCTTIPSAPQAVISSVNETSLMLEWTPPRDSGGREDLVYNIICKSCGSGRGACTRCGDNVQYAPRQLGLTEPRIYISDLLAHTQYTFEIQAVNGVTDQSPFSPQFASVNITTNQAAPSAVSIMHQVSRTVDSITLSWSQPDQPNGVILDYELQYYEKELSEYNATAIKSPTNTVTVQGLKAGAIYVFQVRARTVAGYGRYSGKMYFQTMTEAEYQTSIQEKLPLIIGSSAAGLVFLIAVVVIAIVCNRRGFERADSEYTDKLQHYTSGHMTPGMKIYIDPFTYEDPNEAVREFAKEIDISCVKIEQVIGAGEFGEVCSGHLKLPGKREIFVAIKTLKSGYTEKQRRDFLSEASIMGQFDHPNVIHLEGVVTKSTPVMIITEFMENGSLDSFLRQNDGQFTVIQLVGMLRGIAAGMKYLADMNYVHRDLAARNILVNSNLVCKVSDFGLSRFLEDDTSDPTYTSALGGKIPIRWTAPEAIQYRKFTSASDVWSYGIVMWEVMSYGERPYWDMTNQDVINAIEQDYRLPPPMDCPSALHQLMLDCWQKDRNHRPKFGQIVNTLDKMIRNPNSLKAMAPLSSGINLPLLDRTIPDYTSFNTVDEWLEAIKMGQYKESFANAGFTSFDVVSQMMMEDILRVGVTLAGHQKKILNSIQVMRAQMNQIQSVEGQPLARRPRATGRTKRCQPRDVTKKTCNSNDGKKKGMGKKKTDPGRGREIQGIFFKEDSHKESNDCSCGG
Procedure: as §1, §2, §3, §4

[3] = biological target: T3, ZIPK(h) (Homo sapiens, UniProt O43293)
T3 construct: purchased Caliper Life Sciences
Procedure: as §1, §2, §3, §4

[4] = biological target: T4, cKit(D816V)(h) (Homo sapiens, UniProt P10721, D816V)
T4 construct: purchased Caliper Life Sciences
Procedure: as §1, §2, §3, §4

[5] = biological target: T5, TrkB(h) (Homo sapiens, UniProt Q16620)
T5 construct: purchased Caliper Life Sciences
Procedure: as §1, §2, §3, §4

[6] = biological target: T6, ALK(h) (Homo sapiens, UniProt Q9UM73)
T6 construct: purchased Caliper Life Sciences
Procedure: as §1, §2, §3, §4

[7] = biological target: T7, Tie2(h) (Homo sapiens, UniProt Q02763)
T7 construct: purchased Caliper Life Sciences
Procedure: as §1, §2, §3, §4

[8] = biological target: T8, NEK2(h) (Homo sapiens, UniProt P51955)
T8 construct: purchased Caliper Life Sciences
T8 sequence (P51955 1-445): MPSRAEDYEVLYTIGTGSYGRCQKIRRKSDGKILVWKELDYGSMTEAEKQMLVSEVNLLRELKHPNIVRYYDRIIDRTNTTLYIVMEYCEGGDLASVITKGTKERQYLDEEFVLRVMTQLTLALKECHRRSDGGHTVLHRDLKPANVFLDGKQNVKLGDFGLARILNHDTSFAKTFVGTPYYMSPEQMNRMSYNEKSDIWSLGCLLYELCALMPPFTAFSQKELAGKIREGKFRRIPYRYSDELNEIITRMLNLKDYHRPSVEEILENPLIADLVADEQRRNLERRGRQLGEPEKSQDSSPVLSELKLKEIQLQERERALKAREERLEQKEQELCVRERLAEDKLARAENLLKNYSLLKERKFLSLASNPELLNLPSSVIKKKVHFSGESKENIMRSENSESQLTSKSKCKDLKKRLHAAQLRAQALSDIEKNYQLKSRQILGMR
Procedure: as §1, §2, §3, §4

T4 sequence (P10721 26-976 D816V): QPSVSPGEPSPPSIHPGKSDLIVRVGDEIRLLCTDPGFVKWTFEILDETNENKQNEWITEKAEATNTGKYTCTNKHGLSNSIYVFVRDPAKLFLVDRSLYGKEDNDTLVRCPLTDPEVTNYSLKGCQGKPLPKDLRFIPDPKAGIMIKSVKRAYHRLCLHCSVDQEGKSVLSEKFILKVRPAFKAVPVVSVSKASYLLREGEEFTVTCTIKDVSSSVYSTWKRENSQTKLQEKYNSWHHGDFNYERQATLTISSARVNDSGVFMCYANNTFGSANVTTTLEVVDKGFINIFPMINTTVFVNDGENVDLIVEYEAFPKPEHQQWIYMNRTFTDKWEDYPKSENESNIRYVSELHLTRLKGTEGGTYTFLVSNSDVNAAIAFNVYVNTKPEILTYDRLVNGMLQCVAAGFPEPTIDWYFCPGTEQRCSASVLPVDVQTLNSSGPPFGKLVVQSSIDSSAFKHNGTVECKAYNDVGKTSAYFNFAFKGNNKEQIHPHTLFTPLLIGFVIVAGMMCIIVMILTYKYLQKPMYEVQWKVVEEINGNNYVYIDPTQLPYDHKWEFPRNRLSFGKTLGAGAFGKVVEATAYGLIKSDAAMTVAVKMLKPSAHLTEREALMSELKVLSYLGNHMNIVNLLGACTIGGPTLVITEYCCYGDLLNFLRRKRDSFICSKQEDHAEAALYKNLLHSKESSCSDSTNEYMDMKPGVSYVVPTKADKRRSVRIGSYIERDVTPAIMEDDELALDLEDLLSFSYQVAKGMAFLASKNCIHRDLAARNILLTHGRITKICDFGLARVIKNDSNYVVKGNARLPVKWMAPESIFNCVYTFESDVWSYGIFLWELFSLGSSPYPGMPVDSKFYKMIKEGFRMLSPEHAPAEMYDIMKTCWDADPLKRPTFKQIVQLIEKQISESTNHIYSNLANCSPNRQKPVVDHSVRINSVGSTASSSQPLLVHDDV
T3 sequence (O43293 whole entry): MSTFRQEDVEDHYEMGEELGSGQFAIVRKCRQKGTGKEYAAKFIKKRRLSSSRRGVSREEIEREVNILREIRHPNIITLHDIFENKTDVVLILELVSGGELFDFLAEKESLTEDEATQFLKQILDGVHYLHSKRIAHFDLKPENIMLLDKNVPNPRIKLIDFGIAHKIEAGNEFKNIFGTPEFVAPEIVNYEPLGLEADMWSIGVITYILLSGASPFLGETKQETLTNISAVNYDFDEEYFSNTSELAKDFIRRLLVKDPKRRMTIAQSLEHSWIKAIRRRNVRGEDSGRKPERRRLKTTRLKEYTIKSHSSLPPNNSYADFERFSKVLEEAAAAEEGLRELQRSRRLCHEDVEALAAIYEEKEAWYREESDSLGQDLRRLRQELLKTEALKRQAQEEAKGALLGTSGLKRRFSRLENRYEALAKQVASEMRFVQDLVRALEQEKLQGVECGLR
T1 sequence (P04629 33-796): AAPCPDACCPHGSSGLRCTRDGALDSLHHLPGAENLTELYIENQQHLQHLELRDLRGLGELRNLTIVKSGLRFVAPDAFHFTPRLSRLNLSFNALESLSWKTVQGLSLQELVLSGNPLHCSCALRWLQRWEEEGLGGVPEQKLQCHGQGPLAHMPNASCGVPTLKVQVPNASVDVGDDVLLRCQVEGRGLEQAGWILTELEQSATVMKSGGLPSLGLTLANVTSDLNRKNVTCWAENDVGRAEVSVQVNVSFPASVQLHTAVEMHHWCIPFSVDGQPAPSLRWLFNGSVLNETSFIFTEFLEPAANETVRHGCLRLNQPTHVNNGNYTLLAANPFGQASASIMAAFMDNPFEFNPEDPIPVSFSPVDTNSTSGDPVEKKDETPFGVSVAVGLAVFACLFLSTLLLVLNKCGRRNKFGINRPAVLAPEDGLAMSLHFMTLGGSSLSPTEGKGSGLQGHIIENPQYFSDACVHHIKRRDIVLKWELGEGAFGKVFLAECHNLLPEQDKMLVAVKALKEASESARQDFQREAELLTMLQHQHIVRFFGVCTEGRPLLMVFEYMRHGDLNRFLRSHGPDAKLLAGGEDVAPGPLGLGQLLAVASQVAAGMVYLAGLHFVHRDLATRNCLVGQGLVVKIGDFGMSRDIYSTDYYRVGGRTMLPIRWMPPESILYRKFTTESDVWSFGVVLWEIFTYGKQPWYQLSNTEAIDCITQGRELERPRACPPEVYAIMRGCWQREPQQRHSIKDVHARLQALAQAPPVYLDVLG
T7 sequence (Q02763 23-1124): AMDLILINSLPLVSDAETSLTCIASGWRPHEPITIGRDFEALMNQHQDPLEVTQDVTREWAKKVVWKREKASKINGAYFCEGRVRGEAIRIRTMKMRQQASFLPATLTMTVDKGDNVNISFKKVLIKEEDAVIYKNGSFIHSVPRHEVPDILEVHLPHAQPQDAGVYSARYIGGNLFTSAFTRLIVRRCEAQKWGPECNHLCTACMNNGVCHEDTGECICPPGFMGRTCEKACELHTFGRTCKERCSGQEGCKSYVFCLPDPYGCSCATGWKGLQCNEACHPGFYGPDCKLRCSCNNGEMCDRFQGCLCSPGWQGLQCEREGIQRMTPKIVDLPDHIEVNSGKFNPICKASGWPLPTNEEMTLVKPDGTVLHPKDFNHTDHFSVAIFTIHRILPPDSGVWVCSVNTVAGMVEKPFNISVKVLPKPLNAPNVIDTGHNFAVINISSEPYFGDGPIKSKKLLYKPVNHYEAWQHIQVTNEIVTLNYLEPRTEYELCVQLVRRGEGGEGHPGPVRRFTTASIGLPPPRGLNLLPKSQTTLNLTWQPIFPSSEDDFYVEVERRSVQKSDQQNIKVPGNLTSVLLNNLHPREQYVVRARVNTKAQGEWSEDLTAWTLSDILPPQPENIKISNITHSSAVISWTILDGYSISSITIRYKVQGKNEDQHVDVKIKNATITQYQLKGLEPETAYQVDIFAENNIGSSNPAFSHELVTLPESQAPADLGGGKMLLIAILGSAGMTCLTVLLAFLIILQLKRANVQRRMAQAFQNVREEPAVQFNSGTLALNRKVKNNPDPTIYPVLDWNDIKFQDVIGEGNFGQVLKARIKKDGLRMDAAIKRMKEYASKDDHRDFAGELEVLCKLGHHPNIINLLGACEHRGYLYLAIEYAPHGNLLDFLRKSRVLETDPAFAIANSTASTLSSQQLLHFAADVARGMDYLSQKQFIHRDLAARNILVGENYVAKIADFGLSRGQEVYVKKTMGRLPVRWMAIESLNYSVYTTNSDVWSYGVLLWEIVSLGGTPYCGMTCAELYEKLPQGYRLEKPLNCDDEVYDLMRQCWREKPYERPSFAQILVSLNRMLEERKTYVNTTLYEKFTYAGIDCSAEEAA
T6 sequence (Q9UM73 19-1620): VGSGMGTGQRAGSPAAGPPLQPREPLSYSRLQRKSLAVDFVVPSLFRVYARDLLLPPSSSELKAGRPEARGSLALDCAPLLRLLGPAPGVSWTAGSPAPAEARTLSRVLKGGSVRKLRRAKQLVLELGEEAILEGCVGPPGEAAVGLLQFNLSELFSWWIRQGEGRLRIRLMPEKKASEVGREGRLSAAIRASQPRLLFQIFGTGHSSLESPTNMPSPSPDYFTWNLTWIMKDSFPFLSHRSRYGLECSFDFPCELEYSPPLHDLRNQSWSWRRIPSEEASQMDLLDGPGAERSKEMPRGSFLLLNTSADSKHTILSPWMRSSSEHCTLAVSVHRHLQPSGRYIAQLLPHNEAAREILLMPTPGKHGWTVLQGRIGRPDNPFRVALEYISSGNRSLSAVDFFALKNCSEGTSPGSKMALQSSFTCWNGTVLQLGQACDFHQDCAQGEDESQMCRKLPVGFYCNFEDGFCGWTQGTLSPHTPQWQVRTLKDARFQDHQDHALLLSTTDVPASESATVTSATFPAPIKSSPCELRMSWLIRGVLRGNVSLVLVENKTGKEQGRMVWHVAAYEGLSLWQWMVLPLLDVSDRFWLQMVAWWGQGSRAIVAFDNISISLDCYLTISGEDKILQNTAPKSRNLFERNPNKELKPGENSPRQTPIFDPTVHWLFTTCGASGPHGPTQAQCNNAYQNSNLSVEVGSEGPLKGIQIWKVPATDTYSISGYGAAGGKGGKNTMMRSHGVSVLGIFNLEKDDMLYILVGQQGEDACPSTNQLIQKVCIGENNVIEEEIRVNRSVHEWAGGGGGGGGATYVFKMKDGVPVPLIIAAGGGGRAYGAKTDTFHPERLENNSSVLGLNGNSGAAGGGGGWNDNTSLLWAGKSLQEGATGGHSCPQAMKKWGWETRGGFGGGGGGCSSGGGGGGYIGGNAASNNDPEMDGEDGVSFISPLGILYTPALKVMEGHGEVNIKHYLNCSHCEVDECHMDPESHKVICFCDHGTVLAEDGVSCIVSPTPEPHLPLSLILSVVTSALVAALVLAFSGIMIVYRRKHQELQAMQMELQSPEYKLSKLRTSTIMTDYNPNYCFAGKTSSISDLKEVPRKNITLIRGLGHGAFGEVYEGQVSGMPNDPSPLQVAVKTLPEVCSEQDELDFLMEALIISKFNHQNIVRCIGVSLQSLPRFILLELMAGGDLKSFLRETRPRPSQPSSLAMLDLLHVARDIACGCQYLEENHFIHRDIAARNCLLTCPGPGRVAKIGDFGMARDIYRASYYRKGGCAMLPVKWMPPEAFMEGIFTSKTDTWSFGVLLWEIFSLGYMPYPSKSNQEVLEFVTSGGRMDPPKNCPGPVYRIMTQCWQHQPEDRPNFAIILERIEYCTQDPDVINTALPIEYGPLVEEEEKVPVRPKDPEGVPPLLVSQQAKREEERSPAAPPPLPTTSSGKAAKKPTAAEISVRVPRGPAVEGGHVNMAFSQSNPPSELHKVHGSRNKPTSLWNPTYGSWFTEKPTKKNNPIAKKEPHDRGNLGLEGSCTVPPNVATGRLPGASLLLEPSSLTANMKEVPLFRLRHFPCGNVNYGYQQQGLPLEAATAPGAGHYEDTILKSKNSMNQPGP

Row | Structure (SMILES) | % inhibition TrkA(h) ([1]; 10 μM) | % inhibition EphB2(h) ([2]; 10 μM) | % inhibition ZIPK(h) ([3]; 10 μM) | % inhibition cKit(D816V)(h) ([4]; 10 μM) | % inhibition TrkB(h) ([5]; 10 μM) | % inhibition ALK(h) ([6]; 10 μM) | % inhibition Tie2(h) ([7]; 10 μM) | % inhibition NEK2(h) ([8]; 10 μM) | % inhibition TrkA(h) ([1]; 1 μM) | % inhibition EphB2(h) ([2]; 1 μM) | % inhibition ZIPK(h) ([3]; 1 μM) | % inhibition cKit(D816V)(h) ([4]; 1 μM) | % inhibition TrkB(h) ([5]; 1 μM) | % inhibition ALK(h) ([6]; 1 μM) | % inhibition Tie2(h) ([7]; 1 μM) | % inhibition NEK2(h) ([8]; 1 μM)
1 | O=C(O)[C@H]1[C@H]2C[C@H]3[C@H]1Nc1nc(ncc1F)Nc1cccc(c1)OCCS[C@@H]3C2 [Example 21] | 15% | 8% | 86% | 104% | 18% | 57% | 33% | 92% |  |  |  |  |  |  |  | 
2 | CC[C@@H]1C[C@@H]2/C=C\COc3cccc(c3)Nc3ncc(F)c(n3)N[C@H]2[C@H]1C(N)=O (single isomer, unassigned) [Example 6] |  |  |  |  |  |  |  |  | 50% | 80% | 112% | 96% | 90% | 101% | 119% | 107%
3 | NC(=O)[C@H]1[C@H]2C[C@H]3[C@H]1Nc1nc(ncc1F)Nc1cccc(c1)NC(=O)CS[C@@H]3C2 [Example 27] |  |  |  |  |  |  |  |  | 1% | 67% | 97% | 95% | 5% | 77% | 2% | 113%
4 | C=C[C@@H]1C[C@@H]2/C=C/COc3cccc(c3)Nc3ncc(F)c(n3)N[C@H]2[C@H]1C(N)=O (single isomer, unassigned) [Example 3] |  |  |  |  |  |  |  |  | 58% | 94% | 118% | 77% | 83% | 86% | 99% | 95%
5 | N#Cc1ccc2cc1NC(=O)CS[C@@H]1C[C@@H]3C[C@H]1[C@@H](Nc1nc(ncc1F)N2)[C@H]3C(N)=O [Example 26] |  |  |  |  |  |  |  |  | 1% | 112% | 106% | 112% | 3% | 88% | 44% | 79%
6 | NC(=O)[C@H]1[C@H]2C[C@H]3[C@H]1Nc1nc(ncc1F)Nc1cccc(c1)C(=O)CS[C@@H]3C2 [Example 11] |  |  |  |  |  |  |  |  | 8% | 115% | 84% | 102% | 32% | 81% | 91% | 98%
7 | CN1CCN(c2ccc3cc2NC(=O)CS[C@@H]2C[C@@H]4C[C@H]2[C@@H](Nc2nc(ncc2F)N3)[C@H]4C(N)=O)CC1 [Example 24] |  |  |  |  |  |  |  |  | 5% | 17% | 109% | 97% | 1% | 32% | 8% | 101%
8 | CC[C@@H]1C[C@@H]2CCCOc3cccc(c3)Nc3ncc(F)c(n3)N[C@H]2[C@H]1C(N)=O (single isomer, unassigned) [Example 5] |  |  |  |  |  |  |  |  | 60% | 94% | 110% | 103% | 85% | 97% | 104% | 110%
9 | CN1CCN(c2ccc3cc2OCCS[C@@H]2C[C@@H]4C[C@H]2[C@@H](Nc2nc(ncc2F)N3)[C@H]4C(N)=O)CC1 [Example 22] |  |  |  |  |  |  |  |  | −1% | 16% | 95% | 112% | 14% | 59% | 46% | 96%
10 | NC(=O)[C@H]1[C@H]2C[C@H]3[C@H]1Nc1nc(ncc1F)Nc1cccc(c1)OCCS[C@@H]3C2 [Example 20] |  |  |  |  |  |  |  |  | 1% | 27% | 93% | 112% | 5% | 60% | 8% | 103%
11 | NC(=O)[C@H]1[C@H]2C[C@H]3[C@H]1Nc1nc(ncc1F)Nc1cccc(c1)CSS[C@@H]3C2 [Example 10] |  |  |  |  |  |  |  |  | 0% | 5% | 118% | 96% | 1% | 8% | 101% | 49%
